# Experimental data from US8802664B2 (Bioproject, priority 2010, dated 2014).
# Counter-ions that a name gives are not always drawn.
# Molecular target: T1, human H4 receptor (Homo sapiens, UniProt Q9H3N8)
# T1 construct: expressed in transfected cells
# Test: [3H]Histamine binding on membranes of CHO cells stably expressing human H4 receptor
# Details: not given
# How it was run: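 Filter-bound counts (liquid scintillation) gave H4 binding. Incubation used 20 μg membrane protein/well in Tris/HCl 50 mM plus EDTA 0.5 mM at pH 7.4, and 10 μM JNJ 7777120 set nonspecific binding. Filtration on GF/B pretreated with polyethyleneimine stopped the reaction.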
row,Ki or IC50 activity class [nM],SMILES
1,< 300,"Cc1cc(F)cc(C(OC2CCN(C)CC2)c2nc3ccccc3s2)c1 (centres unmarked) [Example 38, 2-[(3-fluoro-5-methylphenyl)(1-methylpiperidin-4-yloxy)methyl]benzothiazole]"
2,< 30,"CC(O)COCC#Cc1cccc(C(OC2CCN(C)CC2)c2nc3ccccc3s2)c1 (centres unmarked) [Example 276, 1-(3-{3-[benzothiazol-2-yl(1-methylpiperidin-4-yloxy)methyl]phenyl}prop-2-ynyloxy)-propan-2-ol]"
3,< 30,COc1ccc(F)c(C(OCC2CCN(C)C2)c2nc3ccccc3[nH]2)c1 (centres unmarked) [Example 504]
4,< 30,"CN1CCC(NC(c2cccc(OCCC3=CCC4CC3C4(C)C)c2)c2nc3ccccc3[nH]2)CC1 (centres unmarked) [Example 181, ((1H-benzimidazol-2-yl)-{3-[2-(6,6-dimethyl-bicyclo[3.1.1]hept-2-en-2-yl)ethoxy]phenyl}methyl)(1-methylpiperidin-4-yl)amine]"
5,< 30,CN1CCC(OC(c2cccc(OC3CC4CNCC4C3)c2)c2nc3ccccc3s2)CC1 (centres unmarked) [Example 466]
6,< 300,"CN1CCC(OC(c2cccc(C#CCCCn3cccn3)c2)c2nc3ccccc3[nH]2)CC1 (centres unmarked) [Example 410, 2-{(1-methylpiperidin-4-yloxy)[3-(5-pyrazol-1-yl-pent-1-ynyl)phenyl]methyl}-1H-benzimidazole]"
7,< 300,"CN1CCC(OC(c2cccc(C#CCCCCNC(=N)N)c2)c2nc3ccccc3s2)CC1 (centres unmarked) [Example 342, N-(6-{3-[benzothiazol-2-yl(1-methylpiperidin-4-yloxy)methyl]phenyl}hex-5-ynyl)guanidine]"
8,< 300,"CN1CCC(OC(c2cccc(CCCCCNC(=N)N)c2)c2nc3ccccc3[nH]2)CC1 (centres unmarked) [Example 397, N-(5-{3-[(1H-benzimidazol-2-yl)(1-methylpiperidin-4-yloxy)methyl]phenyl}pentyl)guanidine]"
9,< 30,"COc1cccc(C(OC2CCN(C)CC2)c2nc3ccccc3s2)c1 (centres unmarked) [Example 11, 2-[(3-methoxyphenyl)(1-methylpiperidin-4-yloxy)methyl]benzothiazole]"
10,< 300,"CN1CCC(OC(c2cccc(C#CCCO)c2)c2nc3ccccc3s2)CC1 (centres unmarked) [Example 236, 4-{3-[benzothiazol-2-yl(1-methylpiperidin-4-yloxy)methyl]phenyl}but-3-yn-1-ol]"
11,< 30,CN1CCC(OC(c2cccc(SCC(=O)NCCN)c2)c2nc3cc(F)ccc3[nH]2)CC1 (centres unmarked) [Example 459]
12,< 300,"CN1CCC(OC(c2cccc(Oc3ccccc3)c2)c2nc3ccccc3s2)CC1 (centres unmarked) [Example 28, 2-[(1-methylpiperidin-4-yloxy)(3-phenoxy-phenyl)methyl]benzothiazole]"
13,< 30,CN1CCC(OC(c2cccc(SC[C@H]3C[C@H]3CN)c2)c2nc3ccccc3[nH]2)CC1 (some centres unmarked) [Example 494]
14,< 300,"COc1cc(F)cc(C(NC2CCN(C)CC2)c2nc3ccccc3s2)c1 (centres unmarked) [Example 43, [benzothiazol-2-yl(3-fluoro-5-methoxyphenyl)methyl](1-methylpiperidin-4-yl)amine]"
15,< 30,"CC(O)CSc1cccc(C(OC2CCN(C)CC2)c2nc3ccccc3s2)c1 (centres unmarked) [Example 255, 1-{3-[benzothiazol-2-yl(1-methylpiperidin-4-yloxy)methyl]phenylsulfanyl}propan-2-ol]"
16,< 300,"CN1CCC(NC(c2cccc(OCCCC3(C)OCCO3)c2)c2nc3ccccc3[nH]2)CC1 (centres unmarked) [Example 174, ((1H-benzimidazol-2-yl)-{3-[3-(2-methyl-[1,3]dioxolan-2-yl)-propoxy]phenyl}methyl)(1-methylpiperidin-4-yl)amine]"

row,SMILES,Ki or IC50 activity class [nM]
1,"CN1CCC(OC(c2cccc(C#CCNC(=N)NC(=O)OC(C)(C)C)c2)c2nc3ccccc3[nH]2)CC1 (centres unmarked) [Example 336, N-tert-butoxycarbonyl-N′-(3-{3-[(1H-benzimidazol-2-yl)(1-methylpiperidin-4-yloxy)methyl]phenyl}prop-2-ynyl)guanidine]",< 300

# Same assay, conditions: human H4 receptor; evaluated in the GTPγ[35S] assay or in the [3H]histamine binding assay (not stated which per compound); Ki or IC50 class
row,Ki or IC50 activity class [nM],SMILES
1,< 30,"CN1CCC(OC(c2cccc(I)c2)c2nc3ccccc3s2)CC1 (single isomer, unassigned) [Example 118, 2-[(3-iodophenyl)(1-methylpiperidin-4-yloxy)methyl]benzothiazole]"

# Test system: not given
# Test: not given
# Details: not given
row,melting point [°C],SMILES
1,120,"Cc1cc(C(OC2CCN(C)CC2)c2nc3ccccc3s2)ccc1F (centres unmarked) (as salt: oxalate) [Example 34, 2-[(4-fluoro-3-methylphenyl)(1-methylpiperidin-4-yloxy)methyl]benzothiazole]"
2,182,"COc1cccc(C(OC2CCN(C)CC2)c2nc3ccccc3s2)c1 (centres unmarked) (as salt: hydrochloride) [Example 11, 2-[(3-methoxyphenyl)(1-methylpiperidin-4-yloxy)methyl]benzothiazole]"
3,153,"CN1CCC(OC(c2ccc3occc3c2)c2nc3ccccc3s2)CC1 (centres unmarked) (as salt: oxalate) [Example 46, 2-[benzofuran-5-yl(1-methylpiperidin-4-yloxy)methyl]benzothiazole]"
4,172,"CN1CCC(OC(c2cccc(OC(F)(F)F)c2)c2nc3ccccc3[nH]2)CC1 (centres unmarked) (as salt: oxalate) [Example 280, 2-[(1-methylpiperidin-4-yloxy)(3-trifluoromethoxy-phenyl)methyl]-1H-benzimidazole]"
5,68,"CN1CCC(COC(c2cccc(Br)c2)c2nc3ccccc3s2)C1 (single isomer, unassigned) (as salt: oxalate) [Example 464]"
6,85,"CSc1cccc(C(NC2CCN(C)CC2)c2nc3ccccc3s2)c1 (centres unmarked) (as salt: oxalate) [Example 111, [benzothiazol-2-yl(3-methylsulfanylphenyl)methyl](1-methylpiperidin-4-yl)amine]"
7,127,"Cc1cccc(C(NC2CCN(C)CC2)c2nc3ccccc3s2)c1 (centres unmarked) (as salt: oxalate) [Example 21, [(benzothiazol-2-yl)(m-tolyl)methyl](1-methylpiperidin-4-yl)amine]"
8,115,CNC1CCN(c2cccc(C(OC3CCN(C)CC3)c3nc4ccccc4s3)c2)C1 (centres unmarked) (as salt: oxalate) [Example 483]
9,180,CN1CCC(OC(c2cccc(SCCCCN)c2)c2nc3cc(F)c(F)cc3[nH]2)CC1 (centres unmarked) (as salt: oxalate) [Example 495]
10,100,"CN1CCC(OC(c2cccc(CCCCN)c2)c2nc3ccccc3s2)CC1 (centres unmarked) (as salt: oxalate) [Example 366, 4-{3-[benzothiazol-2-yl(1-methylpiperidin-4-yloxy)methyl]phenyl}butylamine]"
11,165 to 170,"CN1CCC(OC(c2cccc(I)c2)c2nc3ccccc3s2)CC1 (centres unmarked) (as salt: oxalate) [Example 41, 2-[(3-iodophenyl)(1-methylpiperidin-4-yloxy)methyl]benzothiazole]"
12,93,"COC(=O)c1cccc(C(OC2CCN(C)CC2)c2nc3ccccc3s2)c1 (centres unmarked) (as salt: oxalate) [Example 199, 3-[benzothiazol-2-yl(1-methylpiperidin-4-yloxy)methyl]benzoic acid methyl ester]"
13,147,"CN1CCC(OC(c2cccc(OCCF)c2)c2nc3ccccc3s2)CC1 (centres unmarked) (as salt: oxalate) [Example 163, 2-[[3-(2-fluoroethoxy)phenyl](1-methylpiperidin-4-yloxy)methyl]benzothiazole]"
14,127,"CN1CCC(NC(c2cccc(SCc3ccccc3)c2)c2nc3ccccc3[nH]2)CC1 (centres unmarked) (as salt: oxalate) [Example 104, [(1H-benzimidazol-2-yl)(3-benzylsulfanylphenyl)methyl](1-methylpiperidin-4-yl)amine]"
15,118,CCOC(=O)n1c(C(OC2CCN(C)CC2)c2cc(OC(F)(F)F)ccc2F)nc2ccccc21 (centres unmarked) (as salt: oxalate) [Example 553]
16,88,"CCOCCn1c(C(OC2CCN(C)CC2)c2cccc(I)c2)nc2ccccc21 (centres unmarked) (as salt: oxalate) [Example 497, 1-(2-ethoxyethyl)-2-[(3-iodophenyl)(1-methylpiperidin-4-yloxy)methyl]-1H-benzimidazole]"
17,115,"CN1CCC(OC(c2cccc(C#CCCCn3cccn3)c2)c2nc3ccccc3[nH]2)CC1 (centres unmarked) (as salt: oxalate) [Example 410, 2-{(1-methylpiperidin-4-yloxy)[3-(5-pyrazol-1-yl-pent-1-ynyl)phenyl]methyl}-1H-benzimidazole]"
18,111,"CC(=O)NC1CCN(c2cccc(C(OC3CCN(C)CC3)c3nc4ccccc4s3)c2)C1 (centres unmarked) (as salt: oxalate) [Example 408, N-(1-{3-[benzothiazol-2-yl(1-methylpiperidin-4-yloxy)methyl]phenyl}pyrrolidin-3-yl)acetamide]"
19,70,"CN1CCC(COC(c2cccc(Br)c2)c2nc3cc(F)ccc3[nH]2)C1 (centres unmarked) (as salt: oxalate) [Example 449, 2-[(3-bromophenyl)(1-methylpyrrolidin-3-ylmethoxy)methyl]-5-fluoro-1H-benzimidazole]"
20,114,Cc1cc(F)c(C(OC2CCN(C)CC2)c2nc3ccccc3o2)c(F)c1 (centres unmarked) (as salt: oxalate) [Example 536]
21,95,CN1CCC(OC(c2nc3ccccc3s2)c2cc(OC(F)(F)F)ccc2F)CC1 (centres unmarked) (as salt: oxalate) [Example 526]
22,100,"CN1CCC(OC(c2cccc(-c3ccc(F)cc3)c2)c2nc3ccccc3[nH]2)CC1 (centres unmarked) (as salt: oxalate) [Example 115, 2-[(4′-fluorobiphenyl-3-yl)(1-methylpiperidin-4-yloxy)methyl]-1H-benzimidazole]"
23,105,"CN1CCC(OC(c2cccc(N3CCC(=O)C3)c2)c2nc3ccccc3s2)CC1 (centres unmarked) (as salt: oxalate) [Example 443, 1-{3-[benzothiazol-2-yl(1-methylpiperidin-4-yloxy)methyl]phenyl}pyrrolidin-3-one]"
